# Like-named read-outs stand apart in the source and are kept apart here.
# Legend:
# [1] = tested on: chimeric replicon with genotype 2b NS5B; test: microbe, parasite or virus in culture; format: cell-based, HCV genotype 2b; conditions: Hepatitis C virus, read-out: 2b chimera 5% FBS EC50
# [2] = tested on: chimeric replicon with genotype 4a NS5B; test: microbe, parasite or virus in culture; format: cell-based, HCV genotype 4a; conditions: Hepatitis C virus, read-out: 4a chimera 5% FBS EC50
# [3] = tested on: chimeric replicon with 2a-J6CF-derived NS5B; test: microbe, parasite or virus in culture; format: cell-based, HCV genotype 2a; conditions: Hepatitis C virus, read-out: 2a chimera 5% FBS EC50
# [4] = tested on: HCV 1a-H77 transient subgenomic replicon in Huh-7 derived cell line; test: microbe, parasite or virus in culture; format: cell-based, HCV genotype 1a; conditions: Hepatitis C virus, Huh-7; transient replicon, 5% FBS; read-out: Transient Replicon 1a H77 5% FBS EC50
# Method in brief: (§1)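 Transient format: T7-transcribed replicon RNA lacking Neo, electroporated into Huh-7-derived cells (5×10^3/well), input RNA checked by luciferase at 4 h. Three-fold compound dilution series, 0.5% DMSO, 4 days at 37° C; EC50 from luciferase signal in lysed cells.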
# [5] = tested on: HCV 1a-H77-C316Y transient subgenomic replicon in Huh-7 derived cell line; test: microbe, parasite or virus in culture; format: cell-based, HCV genotype 1a; conditions: for EC50: Hepatitis C virus, Huh-7, read-out: Transient Replicon 1a H77-C316Y 5% FBS EC50; for Transient Replicon Fold Resistance C316Y/1a: ratio of transient replicon EC50s, C316Y / 1a H77
# Method in brief: as §1
# [6] = tested on: chimeric replicon with genotype 3a NS5B; test: microbe, parasite or virus in culture; format: cell-based, HCV genotype 3a; conditions: Hepatitis C virus, read-out: 3a chimera 5% FBS EC50
# [7] = molecular target: T1, HCV NS5B polymerase 1b BK strain (Hepatitis C virus genotype 1b, UniProt P26663); test: HCV NS5B polymerase enzymatic inhibition assay, strain 1b BK; format: biochemical; conditions: enzyme, strain 1b BK; read-out: HCV Polymerase Strain 1b BK IC50
# T1 construct: six-histidine tag; made in house; host or cells: E. coli
# Method in brief: (§2)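 E. coli-expressed NS5B (residues 1-570, His-tagged) transcribed a 2.1 kb HCV 1b negative-strand 3′-end RNA template (5 nM) with 20 μM CTP, 20 μM ATP and 0.284 μM [3H]UTP for 3 h at 30° C. Spermine-precipitated RNA was filter-captured and counted by scintillation; IC50 from nonlinear regression.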
# [8] = tested on: HCV 1a-H77 subgenomic replicon; test: microbe, parasite or virus in culture; format: cell-based, HCV genotype 1a; conditions: Hepatitis C virus, stable replicon
# [9] = molecular target: T2, HCV NS5B polymerase 1a-H77-C316Y (Hepatitis C virus genotype 1a, UniProt P27958, C2736Y); test: biochemical; design: species or system HCV genotype 1a
# T2 construct: six-histidine tag; made in house; host or cells: E. coli
# Method in brief: as §2
# [10] = molecular target: T3, HCV NS5B polymerase 1a-H77 (Hepatitis C virus genotype 1a, UniProt P27958); test: biochemical; design: species or system HCV genotype 1a
# T3 construct: six-histidine tag; made in house; host or cells: E. coli
# Method in brief: as §2
# [11] = tested on: HCV NS5B polymerase 1a-H77-C316Y; test: biochemical; design: species or system HCV genotype 1a; conditions: ratio of enzyme IC50s, 1a H77-C316Y / 1a H77
# Method in brief: as §2
# [12] = tested on: HCV 1b-BB7 subgenomic replicon; test: microbe, parasite or virus in culture; format: cell-based, HCV genotype 1b; conditions: Hepatitis C virus, stable replicon
# [13] = 5% FBS, absence of human plasma, read-out: Stable Replicon 1a H77 5% FBS EC50
# [14] = strain 1a H77, 5% FBS + 40% human plasma, read-out: 1a H77 5% FBS + 40% Human Plasma EC50
# [15] = strain 1a H77, 5% FBS, no human plasma, read-out: 1a H77 5% FBS EC50
# [16] = strain 1a H77, 5% FBS, read-out: 1a H77 5% FBS EC50
# [17] = enzyme, strain 1a H77, read-out: HCV Polymerase Strain 1a H77 IC50
# [18] = strain 1b BB7, 5% FBS + 40% human plasma, read-out: 1b BB7 5% FBS + 40% Human Plasma EC50
# [19] = strain 1b BB7, 5% FBS, no human plasma, read-out: 1b BB7 5% FBS EC50
# [20] = strain 1b BB7, 5% FBS, read-out: 1b BB7 5% FBS EC50
# T1 sequence (P26663 2420-2989): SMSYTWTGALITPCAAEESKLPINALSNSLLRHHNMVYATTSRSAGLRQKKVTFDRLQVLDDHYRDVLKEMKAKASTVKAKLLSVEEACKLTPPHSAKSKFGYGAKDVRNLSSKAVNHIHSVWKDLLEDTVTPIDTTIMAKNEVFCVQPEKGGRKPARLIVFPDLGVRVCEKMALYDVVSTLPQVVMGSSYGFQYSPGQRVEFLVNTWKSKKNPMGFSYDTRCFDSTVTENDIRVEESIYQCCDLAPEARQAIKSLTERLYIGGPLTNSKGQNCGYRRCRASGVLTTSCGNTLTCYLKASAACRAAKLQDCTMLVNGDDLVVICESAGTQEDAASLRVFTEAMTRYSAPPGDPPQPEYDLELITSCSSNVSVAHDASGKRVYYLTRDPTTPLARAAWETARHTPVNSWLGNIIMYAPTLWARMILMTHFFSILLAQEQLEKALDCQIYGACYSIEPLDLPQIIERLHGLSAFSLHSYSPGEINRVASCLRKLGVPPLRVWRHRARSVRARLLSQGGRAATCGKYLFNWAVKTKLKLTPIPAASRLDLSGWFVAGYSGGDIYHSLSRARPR
# T2 sequence (P27958 2421-2990 C2736Y): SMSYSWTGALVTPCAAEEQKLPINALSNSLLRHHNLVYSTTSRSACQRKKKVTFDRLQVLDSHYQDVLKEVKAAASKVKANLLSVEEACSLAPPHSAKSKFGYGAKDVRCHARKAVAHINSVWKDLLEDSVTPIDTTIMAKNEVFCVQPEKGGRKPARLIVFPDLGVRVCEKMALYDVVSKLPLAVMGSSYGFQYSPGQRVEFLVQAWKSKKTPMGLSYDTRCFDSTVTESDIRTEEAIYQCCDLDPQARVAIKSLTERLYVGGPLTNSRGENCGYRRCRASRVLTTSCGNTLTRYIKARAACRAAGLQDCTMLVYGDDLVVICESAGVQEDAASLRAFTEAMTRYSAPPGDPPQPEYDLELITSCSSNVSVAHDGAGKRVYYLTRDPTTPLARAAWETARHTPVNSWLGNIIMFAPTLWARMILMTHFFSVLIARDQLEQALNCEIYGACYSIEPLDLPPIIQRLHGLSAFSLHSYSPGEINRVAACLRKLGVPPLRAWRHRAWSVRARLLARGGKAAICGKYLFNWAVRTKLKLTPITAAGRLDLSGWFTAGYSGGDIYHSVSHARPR
# T3 sequence (P27958 2421-2990): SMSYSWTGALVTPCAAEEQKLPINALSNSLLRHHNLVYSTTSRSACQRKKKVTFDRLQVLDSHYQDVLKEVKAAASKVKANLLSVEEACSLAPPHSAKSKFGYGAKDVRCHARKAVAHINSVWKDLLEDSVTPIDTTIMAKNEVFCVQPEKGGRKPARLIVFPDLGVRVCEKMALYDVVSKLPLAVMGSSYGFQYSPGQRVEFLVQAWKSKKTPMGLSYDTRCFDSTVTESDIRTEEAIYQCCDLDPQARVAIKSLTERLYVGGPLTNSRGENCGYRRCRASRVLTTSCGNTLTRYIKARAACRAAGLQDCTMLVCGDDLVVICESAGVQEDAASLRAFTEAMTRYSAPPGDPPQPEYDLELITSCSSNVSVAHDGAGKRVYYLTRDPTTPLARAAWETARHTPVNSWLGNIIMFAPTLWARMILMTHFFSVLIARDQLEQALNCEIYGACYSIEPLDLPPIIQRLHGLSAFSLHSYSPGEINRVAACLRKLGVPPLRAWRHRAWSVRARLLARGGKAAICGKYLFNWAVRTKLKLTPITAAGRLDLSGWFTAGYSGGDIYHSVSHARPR
Structure (SMILES),EC50 [1] [nM],EC50 [2] [nM],EC50 [3] [nM],EC50 [4] [nM],EC50 [5] [nM],Transient Replicon Fold Resistance C316Y/1a [5] [fold],EC50 [6] [nM],IC50 [7] [nM],"EC50 [8, 13] [nM]","EC50 [8, 14] [nM]","EC50 [8, 15] [nM]","EC50 [8, 16] [nM]",IC50 [9] [nM],"IC50 [10, 17] [nM]",C316Y/1a Fold Resistance [11] [fold],"EC50 [12, 18] [nM]","EC50 [12, 19] [nM]","EC50 [12, 20] [nM]",IC50 [10] [nM]
"CNS(=O)(=O)CCCN(c1cc2oc(-c3ccc(F)cc3)c(-c3ncc[nH]3)c2cc1C1CC1)S(C)(=O)=O [Example 86, 3-{[5-cyclopropyl-2-(4-fluorophenyl)-3-(1H-imidazol-2-yl)-1-benzofuran-6-yl](methylsulfonyl)amino}-N-methylpropane-1-sulfonamide]",137,108,64.2,2.8,92.1,33,11.5,18,12.3,86,12.3,12.3,56,5,11,41,6.7,6.7,
"CC(C)CCN(c1cc2oc(-c3ccc(F)cc3)c(C3=NOCN3)c2cc1C1CC1)S(C)(=O)=O [Example 156, N-[5-cyclopropyl-3-(4,5-dihydro-1,2,4-oxadiazol-3-yl)-2-(4-fluorophenyl)-1-benzofuran-6-yl]-N-(3-methylbutyl)methanesulfonamide]",893,623,718,29.1,370,13,65.1,27,41.8,2300,41.8,41.8,34,6.3,5,2980,70.9,70.9,
"CS(=O)(=O)N(CCCS(N)(=O)=O)c1cc2oc(-c3ccc(F)cc3)c(C3=NOCN3)c2cc1C1CC1 [Example 15, 3-{[5-cyclopropyl-3-(4,5-dihydro-1,2,4-oxadiazol-3-yl)-2-(4-fluorophenyl)-1-benzofuran-6-yl](methylsulfonyl)amino}propane-1-sulfonamide]",105,142,128,8.2,166,20,12,11,6.5,1770,6.5,6.5,31,,10,818,10,10,3
"CS(=O)(=O)N(CCCS(=O)(=O)c1ccccc1)c1cc2oc(-c3ccc(F)cc3)c(-c3ncc[nH]3)c2cc1C1CC1 [Example 90, N-[5-cyclopropyl-2-(4-fluorophenyl)-3-(1H-imidazol-2-yl)-1-benzofuran-6-yl]-N-[3-(phenylsulfonyl)propyl]methanesulfonamide]",68,27.5,47.5,2.7,65.8,24,12.8,10,10.2,93,10.2,10.2,42,3.5,12,48,6,6,
"CS(=O)(=O)CCCCN(c1cc2oc(-c3ccc(F)cc3)c(C3=NOCN3)c2cc1C1CC1)S(C)(=O)=O [Example 148, N-[5-cyclopropyl-3-(4,5-dihydro-1,2,4-oxadiazol-3-yl)-2-(4-fluorophenyl)-1-benzofuran-6-yl]-N-[4-(methylsulfonyl)butyl]methanesulfonamide]",32,39.7,45.8,5.2,109,21,8.2,6,4.1,1290,4.1,4.1,30,3.9,8,688,4,4,
"CC(C)(O)CCCN(c1cc2oc(-c3ccc(F)cc3)c(-c3ncc[nH]3)c2cc1C1CC1)S(C)(=O)=O [Example 99, N-[5-cyclopropyl-2-(4-fluorophenyl)-3-(1H-imidazol-2-yl)-1-benzofuran-6-yl]-N-(4-hydroxy-4-methylpentyl)methanesulfonamide]",17.3,31.4,29.6,7.6,85.4,11,3.8,11,7.7,126,7.7,7.7,58,4.5,13,105,5.4,5.4,
"CS(=O)(=O)N(CCCN1CCOCC1)c1cc2oc(-c3ccc(F)cc3)c(C3=NOCCN3)c2cc1C1CC1 [Example 126, N-[5-cyclopropyl-3-(5,6-dihydro-4H-1,2,4-oxadiazin-3-yl)-2-(4-fluorophenyl)-1-benzofuran-6-yl]-N-[3-(morpholin-4-yl)propyl]methanesulfonamide]",453,360,350,33.6,260,8,70,111,25.3,258,25.3,25.3,91,21.5,4,379,30,30,

# Reference: patent US20160355530A1, “HEPATITIS C INHIBITORS AND USES THEREOF” (AbbVie Inc., priority 2010, published 2016)
